How the values were obtained:
lipoxygenase = lipoxygenase inhibition, oxygen uptake of washed human platelets with arachidonic acid; assay type: cell-based; conditions: for inhibition of 5-HETE production: 10 μm
Description: The compounds of the present invention were also tested for lipoxygenase inhibition. Arachidonic acid is added to washed human platelets and the oxygen uptake is measured using oxygraph cells. A decrease of oxygen uptake versus the control cell indicates inhibition of lipoxygenase. For a full description of the procedure see, Wallach, et al., Biochim. Biophys. Acta. 231: 445 (1976).

SRS-A = SRS-A synthesis inhibition in rat mononuclear cells incubated with cysteine and challenged with calcium ionophore; assay type: cell-based; conditions: 10 micrograms/ml
Description: This test is conducted in rat mononuclear cells incubated in the presence of cysteine and challenged with a calcium ionophore (which induces SRS-A formation). Among the nonamino compounds of this invention, in this test system, 1-acetoxy-2-n-butyl-4-methoxynaphthalene (Example 3) and 1-acetoxy-2,3-diethyl-4-methoxynaphthalene (Example 4) are preferred.

mucous secretion = assay: canine tracheal mucous secretion (hillock count); assay type: in vivo, mongrel dogs
Description: Mongrel dogs (weight 18-35 kg) were anesthetized with a mixture of chloralose (100 mg/kg) and urethane (500 mg/kg) via intravenous injection. The animals were secured to a surgery table, ventral side up, and the neck and inner right hind limb were shaved. A ventral midline incision was made in the neck using a Bovie CSVII electrosurgical unit, starting from the papillae (interramal) to the clavicle thus exposing the trachea. An endotracheal tube was secured into the lower trachea. The animals were then connected via the endotracheal tube to a Harvard respirator (Model 607A) that delivered room air at a constant tidal volume and frequency. Two polyethylene catheters were connected to the endotracheal tube, and one was connected to a medical gas analyzer (Beckman, Model LB-2) that continuously measured the carbon dioxide (CO2) content of the expired air for determination of end tidal CO2. The other was connected to a pressure transducer (Statham, Model PMI 131TC+2.5-350) for the measurement of airway press ure.
A second incision made in the inner right hind limb to expose the femoral artery and vein was made for the catheterization of these large vessels. A polyethylene catheter was tied into the artery and connected to a pressure transducer (Statham, Model P231D) for the measurement of blood pressure. This catheter also allowed for samples of arterial blood to be collected for measurements of blood gas tension using a blood gas analyser (Corning, Model 175). Another polyethylene catheter was tied into the femoral vein which was used for injecting additional anesthetic and paralyzing drugs. Gallamine triethiodide (20-40 mg) was used to paralyze the respiratory muscles and a single injection of sodium bicarbonate 7.5% (0.5 mg/kg) in conjunction with a continuous i.v. drip of 5% dextrose in 0.9% saline helped to maintain fluid balance. All physiological measurements were recorded and monitored on a polygraph (Grass instruments, Model 7D). Once the femoral cutdown was completed, surgery on the neck region resumed. The carotid artery was exposed and the "knuckle" (a portion of the carotid which bisects to supply blood flow to the trachea and neck muscles) was located. A small polyethylene catheter was then inserted into the muscular branch of the cranial thyroid artery (CTA). This allowed for close arterial injection of experimental agents. The strap muscles were removed and the mucosal surface of the trachea exposed by cutting along the anterior midline of the upper two-thirds of the extrathoracic trachea and pulling the cut edges widely apart. The exposed mucosa was checked for proper canulation by blanching and appropriate adjustments of the canula into the CTA were made until blanching was achieved.
Isometric tension measurements of the trachealis muscle were recorded by suturing a rigid, plastic bar to the (15) cartilaginous rings of the cut edges of the trachea, and connecting one side to a fixed restraint and the contralateral side to a force displacement transducer (Grass, Model FT 03C). An initial tension of 25-30 g/cm of trachea was applied to the muscle, and it was allowed to stabilize for 45 min. An initial zero tension point was determined before agonists were injected into the CTA, and the zero was readjusted after agonist injections.
To visualize secretions coming from the submucosal gland duct openings of the trachea, powdered tantalum, an inert metal (2-5 microns in size) was sprayed on the trachea until it formed a uniform layer over the mucosal surface. The tantalum itself did nothing to normal secretion, but prevented the normal ciliary dispersion of secretions from the gland duct openings; these secretions, therefore, caused elevations ("hillocks") in the tantalum layer. The number of hillocks formed in a 1.2 cm^2 field, 1-2 cm from the larynx, were counted and their images were recorded with a video camera (Hitachi CCTV, Model HV-17TU) mounted on a dissecting microscrope (Zeiss Ompi-1) with a beam splitter. […]

deep vein thrombosis = assay: deep vein thrombosis: jugular vein stasis in cats, scanning electron microscopy; assay type: in vivo, domestic short hair cats
Description: Nine adult domestic short hair cats weighing 4.5-5 kg were anesthetized with sodium pentabarbital (25-30 mg/kg i.v.). The neck area was prepared for a sterile cut down procedure and the jugular veins were exposed. After exposure of the veins each animal was injected with epsilon amino caproic acid (eaca) to inhibit plasminogen activation (2.5 grams i.v. in Tyrode's solution). […] Six of the cats were also treated with 2,3-diethyl-4-methoxy-1-naphthalenol, acetate. Three of the cats were given 1 mg/kg i.v. and 3 of the cats were treated with 5 mg/kg i.v. prior to venous occlusion. The jugular veins were carefully dissected free of surrounding connective tissue and the vein was ligated at the thoracic inlet with 3-0 dexon. The skin incision was closed and the animals were maintained in surgical anesthesia for 2 hours. At the end of the 2 hour waiting period, the jugular veins were exposed again. A 25 gauge butterfly needle was positioned into the lumen and blood was flushed out of the vein with heparinized Tyrode's solution (1U heparin/ml). The veins were tied off and removed under physiologic pressure. The vessels were immediately immersed in a 2.5% glutaraldehyde solution prepared in Tyrode's solution for fixation. The veins were fixed overnight at 5 degrees centigrade, postfixed in 1% osmium tetroxide overnight, dehydrated in ethanol and substituted by amyl acetate. All veins were critical point dried from carbon dioxide using a Denton DCP-1 critical point drying apparatus. The veins were mounted on stubas, gold coated on a Denton DV-502 modified vacuum evaporator and examined on a Cambridge Stereoscan 150 scanning electron microscope.
Two hours of jugular vein stasis following the trauma of dissection caused massive white cell adhesion to and migration under the venous endothelium of non-treated cats and produced sloughing of the endothelium and exposure of the basement membrane. This damage was sufficient to initiate thrombosis. Many of the exposed areas of basement membrane had adherent platelets. The platelets were adherent as monolayers or as aggregates. In some areas fibrin was found deposited on the endothelium or exposed basement membrane. Leukocytes were occasionally associated with the fibrin.

tracheal mucus velocity = conditions: given prior to antigen challenge, patients with a history of bronchial asthma; cited from earlier work
leukotriene synthesis = assay: inhibition of leukotriene synthesis (standard laboratory test); assay type: cell-based
Description: Certain of the amino acyl compounds of this invention (when R3 is --C(O)--(CR17 R18)m --(CH2)n --NR14 R15, --C(O)--AA or --C(O)--PhX--NH2) were evaluated in a standard laboratory test to measure the inhibition of leukotriene synthesis. Four of the amino-type compounds of this invention were preferred in this test. Specifically, in this test system, L-Valine, 2,3-diethyl-4-methoxynaphth-1-yl ester, hydrochloride; L-Valine, 2-n-butyl-4-methoxynaphth-1-yl ester; L-Valine, 2-n-butyl-4-methoxynaphth-1-yl ester, hydrochloride; and L-Alanine, 2-n-butyl-4-methoxynaphth-1-yl ester were preferred.

human airways = conditions: in vitro; cited from earlier work
canine tracheas = conditions: in vivo; cited from earlier work
[1] = 1.0 mg/kg oral, predose time 3.5 hr, n=2, ↑ indicates stimulation
[2] = 5 mg/kg oral, predose time 3.5 hr, n=2
[3] = 1.0%, inhalation, n=6, ***p<0.0001

Molecule: CCCCc1cc(OC)c2ccccc2c1OC(C)=O [Example 3, 2-Butyl-4-methoxy-1-naphthalenol, acetate]
- inhibition of 5-HETE production (lipoxygenase): completely inhibiting
- IC50 (lipoxygenase; lipoxygenase system, washed human platelets): ~100 nM
- inhibition at 10 µg/mL (SRS-A): 100%
- % Inhibition of Agonist Response, Indo/AA (mucous secretion; 0.001%, inhalation, n=4, **p<0.005): 100%
- % Inhibition of Agonist Response, Hypoxia (mucous secretion; 0.001%, inhalation, n=4, *p<0.05): 87%
- % Inhibition of Agonist Response, Baseline: stimulation (.uparw.) (mucous secretion; 0.001%, inhalation, n=4, ↑ indicates stimulation): 24%
- % Inhibition of Agonist Response, Indo/AA (mucous secretion; 1.0 mg/kg oral, predose time 3.5 hr, n=2): 50%
- % Inhibition of Agonist Response, Baseline: stimulation (.uparw.) (mucous secretion; [1]): 6%
- % Inhibition of Agonist Response, Hypoxia: stimulation (.uparw.) (mucous secretion; [1]): 11%
- % Inhibition of Agonist Response, Indo/AA (mucous secretion; 1.0 mg/kg oral, predose time 5.0 hr, n=2, *p<0.05): 62%
- % Inhibition of Agonist Response, Hypoxia (mucous secretion; [2]): 49%
- % Inhibition of Agonist Response, Indo/AA (mucous secretion; [2]): 69%
- % Inhibition of Agonist Response, Baseline: stimulation (.uparw.) (mucous secretion; 5 mg/kg oral, predose time 3.5 hr, n=2, ↑ indicates stimulation): 30%
- % Inhibition of Agonist Response, Indo/AA (mucous secretion; 5 mg/kg oral, predose time 4.5 hr, n=2): 95%
- % Inhibition of Agonist Response, Baseline (mucous secretion; 0.01%, inhalation, n=5): 19%
- % Inhibition of Agonist Response, Hypoxia (mucous secretion; 0.01%, inhalation, n=5): 91%
- % Inhibition of Agonist Response, Indo/AA (mucous secretion; 0.01%, inhalation, n=5, **p<0.005): 100%
- % Inhibition of Agonist Response, Hypoxia (mucous secretion; 10 mg/kg oral, predose time 3 hr, n=2): 94%
- % Inhibition of Agonist Response, Indo/AA (mucous secretion; 10 mg/kg oral, predose time 3 hr, n=2, *p<0.05): 100%
- % Inhibition of Agonist Response, Baseline: stimulation (.uparw.) (mucous secretion; 10 mg/kg oral, predose time 3 hr, n=2, ↑ indicates stimulation): 5%
- % Inhibition of Agonist Response, Indo/AA (mucous secretion; 10 mg/kg oral, predose time 4 hr, n=2, *p<0.05): 100%
- % Inhibition of Agonist Response, Indo/AA (mucous secretion; 10 mg/kg oral, predose time 5 hr, n=2, *p<0.05): 100%
- % Inhibition of Agonist Response, Baseline (mucous secretion; 0.1%, inhalation, n=4): 23%
- % Inhibition of Agonist Response, Indo/AA (mucous secretion; 0.1%, inhalation, n=4, **p<0.005): 100%
- % Inhibition of Agonist Response, Hypoxia (mucous secretion; 0.1%, inhalation, n=4, *p<0.05): 96%
- % Inhibition of Agonist Response, Baseline (mucous secretion; 1.0%, inhalation, n=6): 6%
- % Inhibition of Agonist Response, Hypoxia (mucous secretion; [3]): 100%
- % Inhibition of Agonist Response, Indo/AA (mucous secretion; [3]): 100%
- effect on baseline secretion and on enhanced mucus secretion due to hypoxia or arachidonic acid (mucous secretion; mongrel dog model): effective in blocking baseline secretion in a dose dependent fashion as well as enhanced mucus secretion due to hypoxia or arachidonic acid administration

Molecule: CCc1c(CC)c(OC(C)=O)c2ccccc2c1OC [Example 4, 2,3-Diethyl-4-methoxy-1-naphthalenol, acetate]
- inhibition of 5-HETE production (lipoxygenase): completely inhibiting
- inhibition at 10 µg/mL (SRS-A): 95%
- areas with detached endothelial cells or exposed basement membrane (deep vein thrombosis; 1 mg/kg i.v.): Few areas with detached endothelial cells or exposed basement membrane
- leukocyte adhesion or migration (deep vein thrombosis; 1 mg/kg i.v.): did not reduce leukocyte adhesion or migration
- leukocyte release of hydrolytic enzymes and production of superoxides (deep vein thrombosis; 1 mg/kg i.v.): apparently inhibited
- areas of adherent leukocytes (deep vein thrombosis; 5 mg/kg i.v.): only patchy areas of adherent leukocytes were observed
- fibrin deposition (deep vein thrombosis; 5 mg/kg i.v.): Only occasional small areas of fibrin deposition
- inhibitory effect on leukocyte mediated damage (deep vein thrombosis; 5 mg/kg i.v., compared with 1 mg/kg): even greater inhibitory effect on leukocyte mediated damage
- numbers of adhering and migrating leukocytes (deep vein thrombosis; 5 mg/kg i.v., compared with control or 1 mg/kg group): appeared to be less
- vascular surface with intact endothelial cell cover and few adherent leukocytes (deep vein thrombosis; 5 mg/kg i.v., with the exception of one vein): approximately half or more of the vascular surface
- effect on the vascular changes (deep vein thrombosis; 1 and 5 mg/kg i.v. prior to venous occlusion): dose dependent effect on the vascular changes

Molecule: CCCc1c(OCC(O)COc2ccc3c(=O)cc(C(=O)O)oc3c2CCC)ccc(C(C)=O)c1O (stereo not drawn) [FPL 55712]
- reversing the tracheal mucus velocity (tracheal mucus velocity): effective in reversing the tracheal mucus velocity

Molecule: CCCCc1cc(OC)c2ccccc2c1OC(=O)[C@H](C)N [L-Alanine, 2-n-butyl-4-methoxynaphth-1-yl ester]
- inhibition at 1 µg/mL (leukotriene synthesis; 1 microgram/ml): 98%
- inhibition of synthesis of leukotriene (leukotriene synthesis; 10 micrograms/ml): completely inhibited

Molecule: CCc1c(CC)c(OC(=O)[C@@H](N)C(C)C)c2ccccc2c1OC.Cl [L-Valine, 2,3-diethyl-4-methoxynaphth-1-yl ester, hydrochloride]
- inhibition at 1 µg/mL (leukotriene synthesis; 1 microgram/ml): 100%
- inhibition of synthesis of leukotriene (leukotriene synthesis; 10 micrograms/ml): completely inhibited

Molecule: CCCCc1cc(OC)c2ccccc2c1OC(=O)[C@@H](N)C(C)C.Cl [L-Valine, 2-n-butyl-4-methoxynaphth-1-yl ester, hydrochloride]
- inhibition of synthesis of leukotriene (leukotriene synthesis; 1 microgram/ml): 93%
- inhibition of synthesis of leukotriene (leukotriene synthesis; 10 micrograms/ml): completely inhibited

Molecule: CCCCc1cc(OC)c2ccccc2c1OC(=O)[C@@H](N)C(C)C [L-Valine, 2-n-butyl-4-methoxynaphth-1-yl ester]
- inhibition at 1 µg/mL (leukotriene synthesis; 1 microgram/ml): 97%
- inhibition of synthesis of leukotriene (leukotriene synthesis; 10 micrograms/ml): completely inhibited

Molecule: CCCCC/C=C\C\C=C/C=C/C=C/[C@@H](SC[C@H](N)C(=O)NCC(=O)O)[C@@H](O)CCCC(=O)O [LTD4, leukotriene D4]
- release of mucus from human airways (human airways): increase the release of mucus
- release of mucus from canine tracheas (canine tracheas): increase the release of mucus

Molecule: COc1ccc2c(c1)c(CC(=O)O)c(C)n2C(=O)c1ccc(Cl)cc1 [indomethacin, reference compound]
- block of normal baseline secretion (mucous secretion; indomethacin 5 mg/kg pretreatment, at least 30 minutes): about 20%
- block of the effect of arachidonate alone (mucous secretion; indomethacin 5 mg/kg pretreatment, arachidonate 1.0 mg in the CTA): nicely blocked the effect of arachidonate alone

Molecule: monohydroxyeicosatetraenoic acid
- release of mucus from human airways (human airways): release mucus from human airway
